Experiment: High fat diet induced obesity (DIO) mouse model
Assay type: in vivo, C57CL/6J mice
Design: Epididymal Fat weight / Retroperitoneal Fat weight / Total Fat (sum of the three fat deposits) / Retroperitoneal Fat / Total Fat / Epididymal Fat, absolute weight / Retroperitoneal Fat, absolute weight: unit not given here
Settings: DIO mice; for Hepatocellular ballooning (0-2) / Lobular Inflammation (0-3) / NSAH (sum) / Steatosis (0-3): liver pathology score
Procedure: C57CL/6J mice aged 4-6 weeks (Korea Research Institute of Bioscience & Biotechnology, Ohchang, Korea) were housed in Polycarbonate cages (five mice per cage) in a room with a 12 hr:12 hr light-dark cycle and an ambient temperature of 24° C. All the mice were fed a commercial chow diet for 1 week after arrival in the animal facility. Mice were then divided into normal and obesity groups and fed with normal diet (ND) and high fat diets (HFD) respectively. The HFD group was divided into multiple treatment groups: a high fat diet vehicle group (HFD), an orlistat (purchased as OTC drug Alli®) positive control treatment group (ORI, 40 mg/kg of animal weight, 2 times/day) and optionally a sibutramine positive control treatment group (10 mg/kg, 1 time/day). The HFD contained 340 g of fat/kg of HFD (310 g lard plus 30 g soybean oil; Harlan Laboratories, USA). The HFD was formulated to provide 60% of the total energy generated by the diet from fat by replacing carbohydrate energy with lard and soybean oil, whereas the normal diet (ND) group was fed a diet providing only 18% of the total diet energy from fat(Harlan Laboratories, USA).
Body weight was measured once each week and feed intake was measured twice per week. At the end of the experimental period, following a 12 hr. fasting period, the animals were anesthetized with ether, and blood was drawn from the abdominal vein. Liver and kidney and adipose tissues (epididymal, retroperitoneal, perirenal adipose tissues) were removed from each animal, rinsed with physiological saline, and weighed. Serum concentrations of glucose, total cholesterol, triglycerides, and LDL-cholesterol were determined using automatic analyzer (INTEGRA 400, Roche, Germany). Statistical significance of test results was measured using the Student's t-test.

[1] = G1-G4 1000 mg/kg oral gavage two times per day
[2] = G1-G4 1000 mg/kg oral gavage two times per day, in g (unit assumed)
[3] = G1 = 800 mg/kg orally twice a day
[4] = G1 = 1,100 mg/kg orally twice a day
[5] = G1 = 1,200 mg/kg orally twice a day
[6] = Mean score, G1 1,300 mg/kg twice a day
[7] = Mean, Composition 11 (G1) 1,300 mg/kg twice a day, oral
[8] = Mean, G1 1,300 mg/kg twice a day
[9] = SIB 10 mg/kg, ORI 40 mg/kg, Mutamba extract 32 (G1) 1000 mg/kg, mean
[10] = SIB 10 mg/kg, ORI 40 mg/kg, Mutamba extract 33-2 G1 1000 mg/kg, mean
[11] = combination (1:1) 2000 mg/kg twice a day, group mean
[12] = combination (5:1) 1200 mg/kg twice a day by gavage, group mean
[13] = combination (5:1) 1200 mg/kg twice a day, biochemistry parameters, Table 85, first print
[14] = combination (5:1) 1200 mg/kg twice a day, biochemistry parameters, Table 85, second print
[15] = combination (10:1) 1100 mg/kg twice a day, biochemistry parameter
[16] = combination (10:1) 1100 mg/kg twice a day, group mean
[17] = plasma, Mean, G1 1,300 mg/kg twice a day

SMILES: CCCCCCCCCCC[C@@H](C[C@@H]1OC(=O)[C@H]1CCCCCC)OC(=O)[C@H](CC(C)C)NC=O [ORI, orlistat]
- Food Intake [1]: 2.675 g/day
- Weight Gain [1]: 0.015 g/day
- Absolute Organ Weight, Epididymal Fat [2]: 1.998
- Absolute Organ Weight, Liver [2]: 1.184
- ALP [3]: 177.35 U/L
- ALT [3]: 23.03 U/L
- AST [3]: 51.40 U/L
- Absolute Organ Weight: Epididymal fat [3]: 2.03 g
- Absolute Organ Weight: Liver [3]: 1.19 g
- Absolute Organ Weight: PeriRenal fat [3]: 0.29 g
- Absolute Organ Weight: Retroperitoneal fat [3]: 0.5 g
- Body Weight Gain [3]: -0.004 g/day
- Food Intake [3]: 3.147 g/day
- LDL-C [3]: 4.28 mg/dL
- T-chol [3]: 155.83 mg/dL
- TG [3]: 88.33 mg/dL
- TP [3]: 5.08 g/dL
- ALT [4]: 23.03 U/L
- AST [4]: 51.40 U/L
- Absolute Organ Weight: Epididymal Fat [4]: 2.03 g
- Absolute Organ Weight: Liver [4]: 1.19 g
- Absolute Organ Weight: PeriRenal Fat [4]: 0.29 g
- Absolute Organ Weight: Retroperitoneal Fat [4]: 0.5 g
- Body Weight Gain [4]: -0.004 g/day
- Food Intake [4]: 3.147 g/day
- LDL-C [4]: 4.28 mg/dL
- T-chol [4]: 155.83 mg/dL
- TG [4]: 88.33 mg/dL
- TP [4]: 5.08 g/dL
- ALT [5]: 23.03 U/L
- AST [5]: 51.40 U/L
- Absolute Organ Weight: Epididymal Fat [5]: 2.03 g
- Absolute Organ Weight: Liver [5]: 1.19 g
- Absolute Organ Weight: PeriRenal Fat [5]: 0.29 g
- Absolute Organ Weight: Retroperitoneal Fat [5]: 0.5 g
- Food Intake [5]: 3.147 g/day
- LDL-C [5]: 4.28 mg/dL
- T-chol [5]: 155.83 mg/dL
- TG [5]: 88.33 mg/dL
- TP [5]: 5.08 g/dL
- Weight Gain [5]: -0.004 g/day
- Liver pathology: Hepatocellular ballooning (0-2) [6]: 0.33
- Liver pathology: Lobular Inflammation (0-3) [6]: 1.50
- Liver pathology: Steatosis (0-3) [6]: 0.33
- Body Weight Gain [7]: -0.004 g/day
- Food Intake [7]: 3.147 g/day
- ALP [8]: 177.35 U/L
- ALT [8]: 23.03 U/L
- AST [8]: 51.40 U/L
- Absolute Organ Weight: Epididymal Fat [8]: 2.03 g
- Absolute Organ Weight: Liver [8]: 1.19 g
- Absolute Organ Weight: PeriRenal Fat [8]: 0.29 g
- Absolute Organ Weight: Retroperitoneal Fat [8]: 0.5 g
- HDL-C [8]: 75.57 mg/dL
- LDL-C [8]: 4.28 mg/dL
- TP [8]: 5.08 g/dL
- FER (Food efficiency ratio) (Mean, body weight gain (g/day)/food intake (g/day), G1 1,300 mg/kg twice a day): −0.001
- Liver pathology: NSAH (sum) (Mean, sum of scores, G1 1,300 mg/kg twice a day): 2.17
- Absolute organ weight: Total Fat (Mean, sum of the three fat pads, G1 1,300 mg/kg twice a day): 2.82 g
- FER (Food efficiency ratio) (ORI group, mean, Table 136): 0.000
- Food Intake (ORI group, mean, Table 136): 3.195 g/day
- Weight Gain (ORI group, mean, Table 136): 0.000 g/day
- ALT (ORI group, mean, Table 137): 21.83 U/L
- AST (ORI group, mean, Table 137): 65.65 U/L
- Glu (ORI group, mean, Table 137): 194.00 mg/dL
- HDL-C (ORI group, mean, Table 137): 62.42 mg/dL
- LDL-C (ORI group, mean, Table 137): 4.03 mg/dL
- T-chol (ORI group, mean, Table 137): 137.33 mg/dL
- TG (ORI group, mean, Table 137): 27.83 mg/dL
- Epididymal Fat, absolute weight (ORI group, mean, Table 138): 2.08
- Liver, absolute organ weight (ORI group, mean, Table 138): 0.99 g
- Perirenal Fat, absolute weight (ORI group, mean, Table 138): 0.28
- Retroperitoneal Fat, absolute weight (ORI group, mean, Table 138): 0.57
- Total Fat (sum of the three fat pads) (ORI group, mean, Table 138): 2.94
- Average Body Weight Gain [9]: 0.038 g/day
- Average Food Intake [9]: 2.826 g/day
- Body Weight Gain [10]: 0.093 g/day
- Food Intake [10]: 2.769 g/day
- FER (Food efficiency ratio) (combination (1:1) 2000 mg/kg twice a day, FER = body weight gain/food intake): 0.000
- Food Intake [11]: 3.961 g/day
- Weight Gain [11]: -0.002 g/day
- FER (Food efficiency ratio) (combination (5:1) 1200 mg/kg twice a day by gavage, FER = body weight gain/food intake): 0.000
- Food Intake [12]: 3.961 g/day
- Weight Gain [12]: -0.002 g/day
- Glu [13]: 225.50 mg/dL
- LDL-C [13]: 3.30 mg/dL
- T-chol [13]: 134.00 mg/dL
- TG [13]: 62.50 mg/dL
- Glu [14]: 225.50 mg/dL
- LDL-C [14]: 3.30 mg/dL
- T-chol [14]: 134.00 mg/dL
- TG [14]: 62.50 mg/dL
- FER (Food efficiency ratio) (combination (10:1) 1100 mg/kg twice a day, FER = body weight gain/food intake): 0.000
- Glu [15]: 225.50 mg/dL
- T-chol [15]: 134.00 mg/dL
- TG [15]: 62.50 mg/dL
- Food Intake [16]: 3.961 g/day
- Weight Gain [16]: -0.002 g/day
- Hepatocellular ballooning (0-2) (ORI group, mean, Table 139): 0.67
- Lobular Inflammation (0-3) (ORI group, mean, Table 139): 1.33
- NSAH (sum) (ORI group, mean, Table 139): 2.67
- Steatosis (0-3) (ORI group, mean, Table 139): 0.67
- Hepatocellular ballooning (0-2) (mean, Table 133): 0.33
- Lobular Inflammation (0-3) (mean, Table 133): 1.50
- NSAH (sum) (mean, Table 133): 2.17
- Steatosis (0-3) (mean, Table 133): 0.33
- Glu [17]: 269.17 mg/dL
- T-chol [17]: 156 mg/dL
- TG [17]: 88.3 mg/dL
- Absolute Organ Weight, Total Fat (sum of the three fat pads (epididymal, retroperitoneal, perirenal), in g (unit assumed)): 2.952
- Total Fat (sum of the three fat pads, G1 = 800 mg/kg orally twice a day): 2.82
- Total Fat (sum of the three fat pads, G1 = 1,100 mg/kg orally twice a day): 2.82
- Total Fat (sum of the three fat pads, G1 = 1,200 mg/kg orally twice a day): 2.82
- Total Weight (week 0, G1 = 800 mg/kg orally twice a day, in g (unit assumed)): 40.22
- Total Weight (week 0, G1 = 1,100 mg/kg orally twice a day, in g (unit assumed)): 40.22
- Total Body Weight (week 0, G1 = 1,200 mg/kg orally twice a day, in g (unit assumed)): 40.22
- Total Weight (week 0, ORI group, mean, Table 134, in g (unit assumed)): 38.61
- Total Body Weight (week 0, ORI group, mean, Table 145, in g (unit assumed)): 40.22
- Weight Gain (week 1, G1 = 800 mg/kg orally twice a day): −2.24
- Total Weight (week 1, G1 = 800 mg/kg orally twice a day, in g (unit assumed)): 37.98
- Weight Gain (week 1, G1 = 1,100 mg/kg orally twice a day): −2.24
- Total Weight (week 1, G1 = 1,100 mg/kg orally twice a day, in g (unit assumed)): 37.98
- Weight Gain (week 1, G1 = 1,200 mg/kg orally twice a day): −2.24
- Total Body Weight (week 1, G1 = 1,200 mg/kg orally twice a day, in g (unit assumed)): 37.98
- Total Weight (week 1, ORI group, mean, Table 134, in g (unit assumed)): 33.17
- Weight Gain (week 1, ORI group, mean, Table 135): −5.43
- Total Body Weight (week 1, ORI group, mean, Table 145, in g (unit assumed)): 37.98
- Weight Gain (week 1, ORI group, mean, Table 146): −2.24
- Weight Gain (week 2, G1 = 800 mg/kg orally twice a day): −6.14

From US20240024403A1, “Compositions and Methods for Managing Weight” (Unigen, Inc., priority 2012, published 2024)
